Read-outs that look alike come from different tables or passages of the source.

Experiment [1] in a line: Ferric reducing power (FRAP) assay. The experiment is classed as physicochemical. On the procedure:
(§1) The antioxidant capacity of the extracts was evaluated by the discoloration of the DPPH radical, the ferric reducing power (FRAP), the scavenging of the ABTS radical (TEAC) and the oxygen radical absorbance capacity (ORAC). […] Trolox and quercetin were used as reference compounds. The DPPH, FRAP and TEAC assays were performed according to Jiménez-Aspee et al.. The ORAC assay was carried out following the methodology of Ou et al. with slight modifications. All determinations were carried out in triplicate and results are presented as mean values ± standard deviation (SD).

Experiment [2] is described as follows: Scavenging of the ABTS radical (TEAC) assay. The experiment is classed as physicochemical. On the procedure:
as §1

Experiment [3] is described as follows: DPPH radical discoloration (scavenging) assay. The class given is physicochemical. On the procedure:
as §1
In general terms: The DPPH test is a chemical assay of radical scavenging.

Experiment [4] is described as follows: Oxygen radical absorbance capacity (ORAC) assay. The experiment is classed as physicochemical. On the procedure:
as §1

The nature of experiment [5]: TBARS generation in turkey meat under simulated gastric digestion. Particulars: pH 3.0, 37 °C, 1 h. On the procedure:
This assay was carried out according to Kanner et al., with slight modifications. Briefly, the simulated gastric fluid (SGF) contained final concentration of NaCl (0.2% w/v), pepsin (0.32% w/v) and 700 µL of HCl (37%), adjusted to a final volume of 100 mL with ultrapure water. Thirty grams of turkey meat were ground with 90 mL of the SGF solution for 1 min in a blender and adjusted to pH 3.0 with 100 µL of 7N HCl. Fifteen mL of the SGF-meat mixture was aliquoted in 100 mL Erlenmeyer flasks. The powdered extract was weighed and added to the homogenate (meat–liquid mixture) to achieve final concentrations ranging from 0–500 µg/mL in the 15 mL SGF-meat mixture. The P. andina sample consisted in a pool of the extracts from different collection years. The flasks were placed in a shaking water bath at 37 °C during 1 h. At the end of the incubation, 800 µL of the samples, controls (without extracts) and blanks (without meat) were centrifuged at 20,000× g for 15 min at 4 °C. Lipid peroxidation was determined quantifying TBARS. For this purpose, the supernatant resulting from the centrifugation (750 µL) was mixed with 750 µL of TBA solution (0.37% TBA, 15% trichloroacetic acid in 0.25 N HCl), and boiled during 20 min. The absorbance was determined at 532 nm. All determinations were carried out in triplicate and results are presented as IC50 values (μg extracts/mL) ±SD. […]

Experiment [6] deals with T1, pancreatic lipase (Sus scrofa, UniProt P00591).
T1 construct: purchased Sigma-Aldrich L-3126; host or cells: porcine pancreas
T1 sequence (P00591 1-450): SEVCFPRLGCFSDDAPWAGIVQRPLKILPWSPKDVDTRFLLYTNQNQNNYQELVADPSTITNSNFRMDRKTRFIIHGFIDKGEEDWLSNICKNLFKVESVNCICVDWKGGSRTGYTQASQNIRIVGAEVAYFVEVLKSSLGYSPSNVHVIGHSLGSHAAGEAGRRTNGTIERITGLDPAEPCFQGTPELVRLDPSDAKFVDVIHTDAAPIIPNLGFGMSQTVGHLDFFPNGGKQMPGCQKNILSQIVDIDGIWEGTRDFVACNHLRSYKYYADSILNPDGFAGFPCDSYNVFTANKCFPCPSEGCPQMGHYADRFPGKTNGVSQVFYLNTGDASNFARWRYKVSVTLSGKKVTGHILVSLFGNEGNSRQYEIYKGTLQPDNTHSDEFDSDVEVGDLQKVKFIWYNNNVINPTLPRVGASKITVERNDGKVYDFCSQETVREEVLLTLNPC
As to the kind of experiment: Pancreatic lipase inhibition assay. The experiment is classed as biochemical, porcine. Particulars: Sephadex fractions.

The subject of experiment [7] is AGS cells. Briefly: Intracellular total antioxidant activity (TAA) in AGS cells. Particulars: rutin 100 µg/mL; non-significant. The experiment is classed as cell-based, human. On the procedure: The TAA was carried out according to Ferrari et al.. AGS cells were plated at 25,000 cells/mL in 3 cm diameter Petri dishes. One day after confluence, AGS cells were pre-incubated overnight (16 h) with 3 mL of the pool of P. andina XAD7 extracts, in different concentrations (0–400 µg extract/mL). For comparison purposes, rutin (100 µg/mL) was also included in this experiment. All samples were prepared in medium supplemented with 2% FBS. Cells treated only with culture medium were used as the control of the basal antioxidant level. The next morning, cells were collected with a cell scraper and centrifuged at 900× g during 5 min. […]
The ABTS radical was prepared by mixing 5 mL of a 7.46 mM ABTS solution with 88 μL of a 140 mM potassium persulfate solution. […] At the end of the incubation, the solution was diluted with MeOH until an absorbance value of 0.700 ± 0.050 at 734 nm was reached. […] After 6 min, absorbance was measured at 734 nm in a UV–Vis spectrophotometer. The absorbance was interpolated and converted to Trolox equivalents using a Trolox calibration curve. […] All the determinations were carried out in triplicate and results were expressed as µmol Trolox equivalents/mg protein ±SD.

The subject of experiment [8] is AGS cells. As to the kind of experiment: Cytoprotection against H2O2-induced stress in AGS cells. The experiment is classed as cell-based. Particulars: Homo sapiens, rutin 100 µg/mL, non-significant, H2O2 control 47.4%, read-out: Cell viability after H2O2 challenge. On the procedure:
Human AGS gastric adenocarcinoma cells (ATCC CRL-1739, American Type Culture Collection, Manassas, VA, USA) were grown as monolayers in a humidified incubator with 5% CO2 in air at 37 °C in HamF-12 medium supplemented with 2 mM L-glutamine and 1.5 g/L sodium bicarbonate. The medium contained 10% heat inactivated fetal bovine serum (FBS), 100 IU/mL penicillin and 100 µg/mL streptomycin. Cells were plated at 25,000 cells/mL in 96-well plates, with 100 µL per well. Cells were counted by means of the trypan blue exclusion assay in a Neubauer chamber. All the cell-based experiments were carried out using a pool of the extracts from different collection years.
Confluent cultures of AGS cells were incubated for 16 h with 100 µL of the different samples at concentrations ranging from 0 to 400 µg extract/mL). The flavonol rutin (100 µg/mL) was included in this assay for comparison purposes. The sample was dissolved in medium supplemented with 2% FBS and antibiotics. Culture medium was completely removed by vacuum aspiration at the end of the incubation, and cells were washed with 100 µL of PBS. […] Cell viability was determined by means of the MTT reduction assay, as described above. […] Each concentration of the assayed samples was evaluated in quintuplicate. Results are expressed as percentage of the 100% viability control.

Experiment [9] addresses T2, α-amylase (Sus scrofa, UniProt P00690).
T2 construct: purchased Sigma-Aldrich A3176; host or cells: porcine pancreas
T2 sequence (P00690 16-511): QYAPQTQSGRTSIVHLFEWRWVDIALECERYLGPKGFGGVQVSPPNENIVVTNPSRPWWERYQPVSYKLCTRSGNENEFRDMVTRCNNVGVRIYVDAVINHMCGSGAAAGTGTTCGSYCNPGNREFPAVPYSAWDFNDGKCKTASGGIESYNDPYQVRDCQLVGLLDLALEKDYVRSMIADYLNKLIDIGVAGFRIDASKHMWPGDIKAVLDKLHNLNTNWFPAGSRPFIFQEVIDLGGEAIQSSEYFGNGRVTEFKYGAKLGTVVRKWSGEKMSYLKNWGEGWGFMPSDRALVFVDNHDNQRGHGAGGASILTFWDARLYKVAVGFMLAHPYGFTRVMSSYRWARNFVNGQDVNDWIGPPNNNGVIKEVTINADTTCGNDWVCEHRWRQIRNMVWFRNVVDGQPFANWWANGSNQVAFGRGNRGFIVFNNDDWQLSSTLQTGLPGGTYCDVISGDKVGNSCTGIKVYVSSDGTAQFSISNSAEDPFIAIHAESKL
As to the kind of experiment: α-Amylase inhibition assay. The experiment is classed as biochemical, porcine. Particulars: Sephadex fractions.

The target of experiment [10] is α-glucosidase (Saccharomyces cerevisiae, UniProt P53341). Briefly: α-Glucosidase inhibition assay. The class given is biochemical. Particulars: read-out: α-Glucosidase Inhibition (percentage of inhibition). From the text: The chemicals, enzymes and reagents acquired from Sigma-Aldrich (St. Louis, MO, USA) were the following: α-amylase from porcine pancreas (A3176; EC 3.2.1.1), α-glucosidase from Saccharomyces cerevisiae (G5003; EC 3.2.1.20), acetic acid, AlCl3, Amberlite XAD7 HP, catechin, DPPH (2,2-diphenyl-1-picrylhydrazyl radical), 3,5-dinitrosalicylic acid, porcine pancreas lipase type II (L-3126; EC 3.1.1.3), Na2CO3, 4-nitrophenyl-α-D-glucopyranoside, p-nitrophenyl palmitate, p-anisaldehyde, quercetin, sodium acetate, starch, 2,4,6-tri(2-pyridyl)1,3,5-triazine (TPTZ), trichloracetic acid, thiobarbituric acid, and triton X-100. The following materials were purchased from Merck (Darmstadt, Germany): 6-hydroxy-2,5,7,8-tetramethylchroman-2-carboxylic acid (Trolox), ethyl acetate, FeCl3 × 6H2O, potassium sodium tartrate and HPLC-grade methanol. Pepsin A (P3271) was from US Biological (Salem, MA, USA). […]
Chain of α-glucosidase (P53341 whole entry): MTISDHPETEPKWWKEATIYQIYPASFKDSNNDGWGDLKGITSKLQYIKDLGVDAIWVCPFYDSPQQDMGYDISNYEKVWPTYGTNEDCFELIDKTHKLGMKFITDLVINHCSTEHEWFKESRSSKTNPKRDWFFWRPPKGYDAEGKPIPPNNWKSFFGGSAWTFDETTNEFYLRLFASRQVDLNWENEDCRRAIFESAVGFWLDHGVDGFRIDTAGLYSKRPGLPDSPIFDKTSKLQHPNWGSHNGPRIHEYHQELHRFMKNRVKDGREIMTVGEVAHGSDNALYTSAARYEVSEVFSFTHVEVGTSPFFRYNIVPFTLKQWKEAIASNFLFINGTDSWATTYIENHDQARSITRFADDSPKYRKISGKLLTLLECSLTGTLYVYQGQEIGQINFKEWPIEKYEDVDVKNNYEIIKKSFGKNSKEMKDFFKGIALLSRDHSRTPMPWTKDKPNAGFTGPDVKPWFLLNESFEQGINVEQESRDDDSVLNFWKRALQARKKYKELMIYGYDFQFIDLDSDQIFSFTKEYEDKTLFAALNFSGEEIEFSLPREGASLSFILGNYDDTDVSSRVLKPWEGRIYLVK
Potential inhibition of α-glucosidase by XAD7 extracts and fractions from the LH-20 column was tested under conditions that simulate, at least in part, those of the small intestine. […] Resulting enzyme activity was then measured by adding 20 µL of 5 mM p-nitrophenyl-α-D-glucopyranoside into the wells and incubating for additional 15 min at 37 °C. […] Final absorbance was measured at 415 nm in a Biotek ELx801 (Winooski, VT, USA) microplate reader. […]

In [1] (n = 3, mean ± SD), `O=c1c(O)c(-c2ccc(O)c(O)c2)oc2cc(O)cc(O)c12` [Quercetin, quercetin, reference compound] had an FRAP of 1077.2 ± 16.4 µmol TE/g XAD7 Extract. Moreover, in experiment [2] (n = 3, mean ± SD), the TEAC was 8157.9 ± 22.1 µM TE/g XAD7 Extract. Further, the “DPPH (SC50)” value in experiment [3] (n = 3, mean ± SD) was found to be 7.8 ± 0.3 µg XAD7 Extract/mL. In addition, the ORAC in [4] (n = 3, mean ± SD) was found to be 22561.6 ± 808.8 µmol TE/g XAD7 Extract.

Regarding `N=C(N)NN` [aminoguanidine, Aminoguanidine], the “IC50 of TBARS generation in turkey meat” value in [5] is 317.8 ± 20.4 µg/mL.

On to `C[C@@H]1O[C@@H](OC[C@H]2O[C@@H](Oc3c(-c4ccc(O)c(O)c4)oc4cc(O)cc(O)c4c3=O)[C@H](O)[C@@H](O)[C@@H]2O)[C@H](O)[C@H](O)[C@H]1O` [rutin, quercetin 3-O-rutinoside], for which the “Pancreatic Lipase Inhibition” value in experiment [6] is “inactive”. Also, the “Increase of total intracellular antioxidant activity (TAA) vs untreated controls” value in [7] is 48.6%. The viability at 100 µg/mL in experiment [8] was 46.4%. For the same compound, the “α-Amylase Inhibiton” value in experiment [9] was “inactive”. Besides, the inhibition at 50 µg/mL in [10] stood at 44.8 ± 1.6%.

Turning to `CC(C)(O)CC[C@@H](O)[C@](C)(O)[C@H]1CC[C@@]2(O)C3=CC(=O)[C@@H]4C[C@@H](O)[C@@H](O)C[C@]4(C)[C@H]3CC[C@]12C` [20-hydroxyecdysone], in experiment [6], the “Pancreatic Lipase Inhibition” value is “inactive”. In addition, the FRAP value in experiment [1] (isolated compound) is reported as 72.4 ± 7.9 µmol Trolox equivalents/g sample. Moreover, the TEAC assay activity result in experiment [2] (isolated compound) is “inactive”. Moreover, the “α-Amylase Inhibiton” value in [9] was “inactive”. Also, in experiment [3] (isolated compound), the DPPH assay activity result was “inactive”. In addition, the ORAC value in experiment [4] (isolated compound) is listed as 827.3 ± 30.9 µmol TE/g of sample. The inhibition at 50 µg/mL in experiment [10] (at a concentration of 50 µg/mL, Sephadex fractions / isolated compounds) came to 40.1 ± 1.3%.

A word on the viability: it is the share of living cells, or the viability signal relative to a control. For orientation: inhibition means the drop in the measured response relative to a control, in per cent.

Values taken from publication PMC6891447, “Andean Prumnopitys Andina (Podocarpacae) Fruit Extracts: Characterization of Secondary Metabolites and Potential Cytoprotective Effect” (Molecules, 2019).
